Results on seven compounds are retold here after paper PMC8894567 (The Journal of Antibiotics, 2022).

One assay deals with influenza virus A H7N1. As to conditions: cited from earlier work.
The subject of assay [1] is influenza virus A/Puerto Rico/8/34 (H1N1). Type of assay: cell-based.
The test system of the next assay is influenza type A virus. The following applies: cited from earlier work.
A further assay relates to influenza type B. The following applies: cited from earlier work.
Another assay has as its system Flu A H1N1 strain. The following applies: cited from earlier work.
The next assay concerns herpes virus. As to conditions: read-out: EC50 antiherpetic; cited from earlier work.
In the next assay the test system is HIV. As to conditions: read-out: EC50 anti-HIV activity; cited from earlier work.

As usually defined, the EC50 is the concentration that produces a half-maximal response. “3-oxime of betulonic acid and L-leucine-28-amide”: in the assay on influenza virus A H7N1, the EC50 is 2.17 µM and the “suppression of influenza virus A H7N1” value is listed as 90%.
Regarding `CC(N)C12CC3CC(CC(C3)C1)C2` (stereo not drawn) [Rimantadine], the “SI, selectivity index CC50/IC50” value in assay [1] stood at 5.
Take Alnincanone: the protection index in the assay on influenza type A virus was 60%; with influenza type B it was 80%.
For the compound echinocystic acid, the protection index is given as 60% with influenza type A virus and 80% in the assay on influenza type B.
`COC(=O)[C@]12CC[C@@H](C)[C@H](C)[C@H]1C1=CC[C@@H]3[C@@]4(C)CC[C@H](O)C(C)(C)[C@@H]4CC[C@@]3(C)[C@]1(C)CC2` [methyl ester of ursolic acid]: the protection index with influenza type A virus is 60%; in the assay with influenza type B, 80%.
What is called IC50 is the concentration needed to halve the response being measured. On to “lupane 3,4-seco-3,28-bis-N,N-methylpiperazine-amide”, for which the IC50 with Flu A H1N1 strain is 27 µM.
Take “Ethyl β-alaninate diamide 2,3 seco-lupane”: the EC50 is 4.1 µM with herpes virus and 5.1 µM in the assay with HIV.
